Reference: patent US10238670B2, “9-aminomethyl minocycline compounds and methods of use thereof in urinary tract infection (UTI) treatment” (Paratek Pharmaceuticals, Inc., priority 2016, dated 2019)

Experiment: Phase 1b study in female adults with cystitis, urine PK
Assay type: in vivo, human
Settings: urine
Procedure: Urine was collected, the volume recorded, and analyzed for Compound 1 concentration at the following times: • Day 1 to 2: pooled total urine 0 to 4, 4 to 8, 8 to 12, and 12-24 hours after the t=0 h dose; Collection of the 12 to 24 h sample should be completed prior to the t=24 h dose on Day 2; • Day 5 to 6: pooled total urine 0 to 4, 4 to 8, 8 to 12, and 12-24 hours after the t=96 h dose;
Urine was pooled during the intervals above. At the end of each interval, the time and total volume were recorded.
Compound 1 urine concentration data was used to determine the amount excreted in a dosing interval, the urinary excretion rate, and, in conjunction with the plasma concentration data, to estimate the renal clearance (CLr) of Compound 1.
Urine was collected and the volume recorded at the following times: • Day 1 to 2: pooled total urine 0 to 4, 4 to 8, 8 to 12, and 12-24 hours after the t=0 h dose; • Day 5 to 6: pooled total urine 0 to 4, 4 to 8, 8 to 12, and 12-24 hours after the t=96 h dose;
At the end of each collection time period the pooled urine was frozen at −20° C. or colder and the total volume of urine collected for the time period was recorded. The samples were kept frozen at −20° C. or colder pending shipment to the bioanalytical laboratory.
The urine sample volume, its Compound 1 concentration, the amount of Compound 1 excreted in the urine (product of volume and concentration) over a dosing interval, the urinary excretion rates and renal clearance (CLr) of Compound 1 following the initial Day 1 and final Day 5 doses were summarized by the treatment groups.

With `CN(C)c1cc(CNCC(C)(C)C)c(O)c2c1C[C@H]1C[C@H]3[C@H](N(C)C)C(O)=C(C(N)=O)C(=O)[C@@]3(O)C(O)=C1C2=O` [Compound 1, 9-[(2,2-dimethyl-propylamino)-methyl]-minocycline] the “Ae 12-24 hrs, Mean” value (Day 1, IV_PO300) was 14.00 mg, the “Ae 12-24 hrs, Median” value (Day 1, IV_PO300) was 12.32 mg and the “Fe 0-24 hrs, Geo. Mean” value (Day 1, IV_PO300) was 18.49%. For the same compound, the “Fe 0-24 hrs, Mean” value (Day 1, IV_PO300) was 20.35%, the “Fe 0-24 hrs, Median” value (Day 1, IV_PO300) was 20.70% and the “Ae 0-4 hrs, Geo. Mean” value (Day 1, PO300) was 5.90 mg. For the same compound, the “Ae 0-4 hrs, Mean” value (Day 1, PO300) was 6.41 mg, the “Ae 0-4 hrs, Median” value (Day 1, PO300) was 6.58 mg and the “Ae 0-24 hrs, Geo. Mean” value (Day 1, PO300) was 36.94 mg. For the same compound, the “Ae 0-24 hrs, Median” value (Day 1, PO300) was 39.07 mg, the “Ae 4-8 hrs, Geo. Mean” value (Day 1, PO300) was 6.42 mg and the “Ae 4-8 hrs, Mean” value (Day 1, PO300) was 7.60 mg. The “Ae 4-8 hrs, Median” value (Day 1, PO300) was 6.28 mg, the “Ae 8-12 hrs, Geo. Mean” value (Day 1, PO300) was 7.22 mg and the “Ae 8-12 hrs, Mean” value (Day 1, PO300) was 9.17 mg. The “Ae 8-12 hrs, Median” value (Day 1, PO300) was 6.86 mg, the “Ae 12-24 hrs, Geo. Mean” value (Day 1, PO300) was 14.19 mg and the “Ae 12-24 hrs, Mean” value (Day 1, PO300) was 16.82 mg. The “Ae 12-24 hrs, Median” value (Day 1, PO300) was 16.30 mg, the “Fe 0-24 hrs, Geo. Mean” value (Day 1, PO300) was 6.16% and the “Fe 0-24 hrs, Mean” value (Day 1, PO300) was 6.54%. For the same compound, the “Fe 0-24 hrs, Median” value (Day 1, PO300) was 6.51%, the “Ae 0-4 hrs, Geo. Mean” value (Day 1, PO450) was 3.96 mg and the “Ae 0-4 hrs, Mean” value (Day 1, PO450) was 7.27 mg. For the same compound, the “Ae 0-4 hrs, Median” value (Day 1, PO450) was 5.05 mg, the “Ae 0-24 hrs, Geo. Mean” value (Day 1, PO450) was 34.07 mg and the “Ae 0-24 hrs, Median” value (Day 1, PO450) was 37.30 mg. The “Ae 4-8 hrs, Geo. Mean” value (Day 1, PO450) was 6.00 mg, the “Ae 4-8 hrs, Mean” value (Day 1, PO450) was 7.11 mg and the “Ae 4-8 hrs, Median” value (Day 1, PO450) was 6.16 mg. The “Ae 8-12 hrs, Geo. Mean” value (Day 1, PO450) was 4.75 mg, the “Ae 8-12 hrs, Mean” value (Day 1, PO450) was 5.36 mg and the “Ae 8-12 hrs, Median” value (Day 1, PO450) was 5.27 mg. The “Ae 12-24 hrs, Geo. Mean” value (Day 1, PO450) was 14.57 mg, the “Ae 12-24 hrs, Mean” value (Day 1, PO450) was 16.92 mg and the “Ae 12-24 hrs, Median” value (Day 1, PO450) was 15.98 mg. For the same compound, the “Fe 0-24 hrs, Geo. Mean” value (Day 1, PO450) was 3.79%, the “Fe 0-24 hrs, Mean” value (Day 1, PO450) was 3.99% and the “Fe 0-24 hrs, Median” value (Day 1, PO450) was 4.14%. For the same compound, the “Ae 0-4 hrs, Geo. Mean” value (Day 5, IV_PO300) was 3.89 mg, the “Ae 0-4 hrs, Mean” value (Day 5, IV_PO300) was 7.74 mg and the “Ae 0-4 hrs, Median” value (Day 5, IV_PO300) was 4.99 mg. For the same compound, the “Ae 0-24 hrs, Geo. Mean” value (Day 5, IV_PO300) was 21.72 mg, the “Ae 0-24 hrs, Median” value (Day 5, IV_PO300) was 31.29 mg and the “Ae 4-8 hrs, Geo. Mean” value (Day 5, IV_PO300) was 5.22 mg. For the same compound, the “Ae 4-8 hrs, Mean” value (Day 5, IV_PO300) was 8.38 mg, the “Ae 4-8 hrs, Median” value (Day 5, IV_PO300) was 7.13 mg and the “Ae 8-12 hrs, Geo. Mean” value (Day 5, IV_PO300) was 3.94 mg. The “Ae 8-12 hrs, Mean” value (Day 5, IV_PO300) was 6.28 mg, the “Ae 8-12 hrs, Median” value (Day 5, IV_PO300) was 6.47 mg and the “Ae 12-24 hrs, Geo. Mean” value (Day 5, IV_PO300) was 7.31 mg. For the same compound, the “Ae 12-24 hrs, Mean” value (Day 5, IV_PO300) was 10.71 mg, the “Ae 12-24 hrs, Median” value (Day 5, IV_PO300) was 11.25 mg and the “Fe 0-24 hrs, Geo. Mean” value (Day 5, IV_PO300) was 7.24%. For the same compound, the “Fe 0-24 hrs, Mean” value (Day 5, IV_PO300) was 10.76%, the “Fe 0-24 hrs, Median” value (Day 5, IV_PO300) was 10.43% and the “Ae 0-4 hrs, Geo. Mean” value (Day 5, PO300) was 7.20 mg. For the same compound, the “Ae 0-4 hrs, Mean” value (Day 5, PO300) was 10.02 mg, the “Ae 0-4 hrs, Median” value (Day 5, PO300) was 9.35 mg and the “Ae 0-24 hrs, Geo. Mean” value (Day 5, PO300) was 31.46 mg. The “Ae 0-24 hrs, Median” value (Day 5, PO300) was 34.96 mg, the “Ae 4-8 hrs, Geo. Mean” value (Day 5, PO300) was 9.17 mg and the “Ae 4-8 hrs, Mean” value (Day 5, PO300) was 10.54 mg. For the same compound, the “Ae 4-8 hrs, Median” value (Day 5, PO300) was 8.05 mg, the “Ae 8-12 hrs, Geo. Mean” value (Day 5, PO300) was 5.02 mg and the “Ae 8-12 hrs, Mean” value (Day 5, PO300) was 6.74 mg. For the same compound, the “Ae 8-12 hrs, Median” value (Day 5, PO300) was 7.29 mg, the “Ae 12-24 hrs, Geo. Mean” value (Day 5, PO300) was 10.71 mg and the “Ae 12-24 hrs, Mean” value (Day 5, PO300) was 11.95 mg. The “Ae 12-24 hrs, Median” value (Day 5, PO300) was 11.38 mg, the “Fe 0-24 hrs, Geo. Mean” value (Day 5, PO300) was 10.49% and the “Fe 0-24 hrs, Mean” value (Day 5, PO300) was 12.74%. The “Fe 0-24 hrs, Median” value (Day 5, PO300) was 11.65%, the “Ae 0-4 hrs, Geo. Mean” value (Day 5, PO450) was 9.50 mg and the “Ae 0-4 hrs, Mean” value (Day 5, PO450) was 12.07 mg. For the same compound, the “Ae 0-4 hrs, Median” value (Day 5, PO450) was 11.76 mg, the “Ae 0-24 hrs, Geo. Mean” value (Day 5, PO450) was 43.60 mg and the “Ae 0-24 hrs, Median” value (Day 5, PO450) was 50.26 mg. The “Ae 4-8 hrs, Geo. Mean” value (Day 5, PO450) was 11.02 mg, the “Ae 4-8 hrs, Mean” value (Day 5, PO450) was 19.74 mg and the “Ae 4-8 hrs, Median” value (Day 5, PO450) was 10.30 mg. The “Ae 8-12 hrs, Geo. Mean” value (Day 5, PO450) was 6.01 mg, the “Ae 8-12 hrs, Mean” value (Day 5, PO450) was 7.54 mg and the “Ae 8-12 hrs, Median” value (Day 5, PO450) was 5.62 mg. The “Ae 12-24 hrs, Geo. Mean” value (Day 5, PO450) was 15.26 mg, the “Ae 12-24 hrs, Mean” value (Day 5, PO450) was 18.59 mg and the “Ae 12-24 hrs, Median” value (Day 5, PO450) was 20.23 mg. For the same compound, the “Fe 0-24 hrs, Geo. Mean” value (Day 5, PO450) was 9.69%, the “Fe 0-24 hrs, Mean” value (Day 5, PO450) was 12.19% and the “Fe 0-24 hrs, Median” value (Day 5, PO450) was 11.17%.
